In ChEMBL document CHEMBL3046027, “In vitro and in vivo antifungal activity of synthetic pure isothiocyanates against Sclerotinia sclerotiorum” (Pest Manag Sci, 2011):

Key:
Sclerotinia sclerotiorum [1] = test: Fungitoxic activity in Sclerotinia sclerotiorum assessed as inhibition of mycelial growth in volatile phase at 1024 umol/l measured at 20 degC after 5 days relative to control; type: functional; conditions: 120 h, read-out: GI
Sclerotinia sclerotiorum [2] = test: Antifungal activity against Sclerotinia sclerotiorum assessed as inhibition of mycelial growth in contact phase at 1316 umol/l measured at 20 degC after 5 days; type: functional; conditions: 120 h, read-out: GI
Sclerotinia sclerotiorum [3] = test: Fungistatic activity in Sclerotinia sclerotiorum assessed as inhibition of carpogenic germination in volatile phase at 732 umol/l measured at 20 degC after 5 days relative to control; type: functional; conditions: 120 h
Sclerotinia sclerotiorum [4] = test: Antifungal activity against Sclerotinia sclerotiorum assessed as inhibition of mycelial growth in volatile phase at 1460 umol/l measured at 20 degC after 5 days; type: functional; conditions: 120 h, read-out: GI
Sclerotinia sclerotiorum [5] = test: In vivo antifungal Sclerotinia sclerotiorum in Pepper (Capsicum annuum L. cv. Sera Demre) assessed as inhibition of mycelial growth in volatile phase at 146 umol/L measured after 10 to 14 weeks; type: functional
Sclerotinia sclerotiorum [6] = test: Antifungal activity against Sclerotinia sclerotiorum assessed as inhibition of germination in volatile phase at 73 umol/l measured at 20 degC after 5 days; type: functional; conditions: 120 h
Sclerotinia sclerotiorum [7] = test: Antifungal activity against Sclerotinia sclerotiorum assessed as inhibition of mycelial growth in volatile phase at 146 umol/l measured at 20 degC after 5 days; type: functional; conditions: 120 h, read-out: GI
Sclerotinia sclerotiorum [8] = test: In vivo antifungal Sclerotinia sclerotiorum in Pepper (Capsicum annuum L. cv. Sera Demre) assessed as inhibition of mycelial growth in volatile phase at 292 umol/L measured after 10 to 14 weeks; type: functional
Sclerotinia sclerotiorum [9] = test: Antifungal activity against Sclerotinia sclerotiorum assessed as inhibition of mycelial growth in contact phase at 2924 umol/l measured at 20 degC after 5 days; type: functional; conditions: 120 h, read-out: GI
Sclerotinia sclerotiorum [10] = test: Antifungal activity against Sclerotinia sclerotiorum assessed as inhibition of mycelial growth in volatile phase at 73 umol/l measured at 20 degC after 5 days; type: functional; conditions: 120 h, read-out: GI
Sclerotinia sclerotiorum [11] = test: Antifungal activity against Sclerotinia sclerotiorum assessed as inhibition of germination in volatile phase at 439 umol/l measured at 20 degC after 5 days; type: functional; conditions: 120 h
Sclerotinia sclerotiorum [12] = test: Fungistatic activity in Sclerotinia sclerotiorum assessed as inhibition of mycelial growth in volatile phase at 732 umol/l measured at 20 degC after 5 days relative to control; type: functional; conditions: 120 h, read-out: GI
Sclerotinia sclerotiorum [13] = test: Antifungal activity against Sclerotinia sclerotiorum assessed as inhibition of mycelial growth in contact phase at 4387 umol/l measured at 20 degC after 5 days; type: functional; conditions: 120 h, read-out: GI
Sclerotinia sclerotiorum [14] = test: Antifungal activity against Sclerotinia sclerotiorum assessed as inhibition of germination in volatile phase at 731 umol/l measured at 20 degC after 5 days; type: functional; conditions: 120 h
Sclerotinia sclerotiorum [15] = test: Fungistatic activity in Sclerotinia sclerotiorum assessed as inhibition of mycelial growth in contact phase measured at 20 degC after 5 days; type: functional, organism-based; conditions: 120 h
Sclerotinia sclerotiorum [16] = test: Fungistatic activity in Sclerotinia sclerotiorum assessed as inhibition of carpogenic germination in volatile phase at 146 umol/l measured at 20 degC after 5 days relative to control; type: functional; conditions: 120 h
Sclerotinia sclerotiorum [17] = test: Antifungal activity against Sclerotinia sclerotiorum assessed as inhibition of mycelial growth in volatile phase at 1024 umol/l measured at 20 degC after 5 days; type: functional; conditions: 120 h, read-out: GI
Sclerotinia sclerotiorum [18] = test: Fungistatic activity in Sclerotinia sclerotiorum assessed as inhibition of mycelial growth in contact phase at 4387 umol/l measured at 20 degC after 5 days relative to control; type: functional; conditions: 120 h, read-out: GI
Sclerotinia sclerotiorum [19] = test: Antifungal activity against Sclerotinia sclerotiorum assessed as inhibition of germination in volatile phase at 146 umol/l measured at 20 degC after 5 days; type: functional; conditions: 120 h
Sclerotinia sclerotiorum [20] = test: Fungistatic activity in Sclerotinia sclerotiorum assessed as inhibition of mycelial growth in volatile phase measured at 20 degC after 5 days; type: functional, organism-based; conditions: 120 h
Sclerotinia sclerotiorum [21] = test: Fungistatic activity in Sclerotinia sclerotiorum assessed as inhibition of carpogenic germination in volatile phase at 73 umol/l measured at 20 degC after 5 days relative to control; type: functional; conditions: 120 h
Sclerotinia sclerotiorum [22] = test: Antifungal activity against Sclerotinia sclerotiorum assessed as inhibition of mycelial growth in contact phase at 1024 umol/l measured at 20 degC after 5 days; type: functional; conditions: 120 h, read-out: GI
Sclerotinia sclerotiorum [23] = test: Fungitoxic activity in Sclerotinia sclerotiorum assessed as viability in volatile phase at 731 umol/l measured at 20 degC after 5 days relative to control; type: functional; conditions: 120 h, read-out: GI
Sclerotinia sclerotiorum [24] = test: Antifungal activity against Sclerotinia sclerotiorum assessed as inhibition of germination in volatile phase at 1462 umol/l measured at 20 degC after 5 days; type: functional; conditions: 120 h
Sclerotinia sclerotiorum [25] = test: Antifungal activity against Sclerotinia sclerotiorum assessed as inhibition of mycelial growth in contact phase at 1462 umol/l measured at 20 degC after 5 days; type: functional; conditions: 120 h, read-out: GI
Sclerotinia sclerotiorum [26] = test: Fungistatic activity in Sclerotinia sclerotiorum assessed as inhibition of carpogenic germination in volatile phase at 1460 umol/l measured at 20 degC after 5 days relative to control; type: functional; conditions: 120 h
Sclerotinia sclerotiorum [27] = test: Fungistatic activity in Sclerotinia sclerotiorum assessed as sclerotial viability measured at 20 degC after 5 days; type: functional, organism-based; conditions: 120 h
Sclerotinia sclerotiorum [28] = test: Antifungal activity against Sclerotinia sclerotiorum assessed as inhibition of mycelial growth in volatile phase at 732 umol/l measured at 20 degC after 5 days; type: functional; conditions: 120 h, read-out: GI

`CN=C=S` [METHYLISOTHIOCYANATE] was tested, and the inhibition of growth at 1024 µM (Sclerotinia sclerotiorum [1]) was 100%, the inhibition of growth at 1316 µM (Sclerotinia sclerotiorum [2]) was 18.2% and the inhibition at 732 µM (Sclerotinia sclerotiorum [3]) was 35%. It also gave an inhibition of growth at 1460 µM (Sclerotinia sclerotiorum [4]) of 100%, an inhibition in vivo at 146 µM (Sclerotinia sclerotiorum [5]) of 55% and an inhibition at 73 µM (Sclerotinia sclerotiorum [6]) of 0%. The inhibition of growth at 146 µM (Sclerotinia sclerotiorum [7]) was 55.3%, the inhibition in vivo at 292 µM (Sclerotinia sclerotiorum [8]) was 85% and the inhibition of growth at 2924 µM (Sclerotinia sclerotiorum [9]) was 81.2%. The inhibition of growth at 73 µM (Sclerotinia sclerotiorum [10]) was 34.7%, the inhibition at 439 µM (Sclerotinia sclerotiorum [11]) was 66.7% and the inhibition of growth at 732 µM (Sclerotinia sclerotiorum [12]) was 100%. The inhibition of growth at 4387 µM (Sclerotinia sclerotiorum [13]) was 100%, the inhibition at 731 µM (Sclerotinia sclerotiorum [14]) was 100% and the EC50 (Sclerotinia sclerotiorum [15]) was 168 µM. It also gave an inhibition at 146 µM (Sclerotinia sclerotiorum [16]) of 30%, an inhibition of growth at 1024 µM (Sclerotinia sclerotiorum [17]) of 100% and an inhibition of growth at 4387 µM (Sclerotinia sclerotiorum [18]) of 100%. The inhibition at 146 µM (Sclerotinia sclerotiorum [19]) was 6.7%, the EC50 (Sclerotinia sclerotiorum [20]) was 79 µM and the inhibition at 73 µM (Sclerotinia sclerotiorum [21]) was 30%. The inhibition of growth at 1024 µM (Sclerotinia sclerotiorum [22]) was 10.8%, the inhibition of growth at 731 µM (Sclerotinia sclerotiorum [23]) was 100% and the inhibition at 1462 µM (Sclerotinia sclerotiorum [24]) was 100%. The inhibition of growth at 1462 µM (Sclerotinia sclerotiorum [25]) was 54.7%, the inhibition at 1460 µM (Sclerotinia sclerotiorum [26]) was 67.5% and the EC50 (Sclerotinia sclerotiorum [27]) was 336 µM. It also gave an inhibition of growth at 732 µM (Sclerotinia sclerotiorum [28]) of 100%.
